Measured values reported in patent publication US20070020193A1, “Dronabinol compositions and methods for using same” (priority 2005, published 2007).
“Also recorded” adds a separate entry of the source.

Key:
[1] = tested on: healthy subjects; assay: Example 2: conjunctiva congestion rating; type: in vivo, human
Description: (§1) Conjunctiva Congestion was rated by a trained observer on a scale of 0-3 based on the blood vessels present as follows:
(§2) 0—None (The white of the eye was not affected)
(§3) 3—Considerable (The compete white of the eye is red caused by a pattern of bigger vessels. This is associated with complaints.)
(§4) Changes from baseline in conjunctiva congestion and heart rate were compared for all time-points measured, and summarized using descriptive statistics. Subjective ratings were individually tabulated and sorted by treatment group, subject number, and time, and summarized using descriptive statistics. Separate tables were provided to summarize differences between males and females if applicable. Pharmacodynamic assessments were compared with delta-9 THC and 11-OH-THC blood concentrations and summarized using descriptive statistics.

[2] = tested on: healthy subjects; assay: Example 2: heart rate (telemetry / vital signs); type: in vivo, human; settings: for placebo-corrected mean heart rate: 1.2 mg; for Mean increase of heart rate above baseline: last day of dosing
Description: For Examples 1 and 2: Heart rate was obtained from the blood pressure recordings or using telemetry.
(§5) Absolute values of heart rate and conjunctive congestion scores were used to calculate changes from baseline.
as §4

[3] = tested on: healthy subjects; assay: Example 2: pulmonary function tests; type: in vivo, human
Protocol: (§6) Adverse events were recorded based on original descriptions from subject responses to queries. Complete medical histories and physical examinations were conducted. Vital signs were monitored, ECGs were recorded along with pulmonary function tests and laboratory examinations.
(§7) Listings of values for each subject were presented with abnormal or out of range values for vital signs, laboratory assays, ECGs, pulmonary function tests, and physical examinations. Descriptive statistics (n, mean, standard deviation (SD), minimum, median, maximum) for all clinical laboratory safety parameters, ECGs, pulmonary function tests, and vital signs were provided. ECGs and physical examinations were to be summarized in shift tables to show changes from baseline between normal and abnormal findings.

[4] = tested on: healthy subjects; design: species or system human; settings: in vivo
[5] = tested on: healthy subjects; assay: Example 2: subjective drug rating and ARCI-49; type: in vivo, human
Description: The data for Group I and Group II were pooled and submitted to a mixed effects general linear model analysis. Two sets of analyses were done. The first was for the pre-drug conditions. The fixed effect of day and the fixed effect of condition were non-significant for all of the five scale scores, indicating similarity of pre-drug baseline score. A second analysis compared condition, the first dosing day, the last dosing day, the four visits including pre-drug, and the subjects in the analysis of variance.
The subject responded to each of three questions on a scale of 0 to 100 with 0 meaning no effect/not at all and 100 meaning maximum/very much:
The ARCI is a true/false questionnaire developed to specifically measure the subjective effects of drugs which have diverse pharmacological actions. The […] (PCAG), morphine-benzedrine, and lysergic acid diethylamide subgroup scales were used to assess sedation, euphoria, and dysphoria. Questions from the marijuana subscale were also included.

[6] = tested on: healthy subjects; assay: Example 2: safety, adverse events; type: in vivo, human; settings: for events reported among subjects treated with active drug: all six subjects; for events considered probably or possibly related to study drug: all six subjects on active drug
Protocol: as §6
Treatment-emergent adverse events (TEAEs), defined as any event that begins or worsens after treatment with study medication, were summarized by MedDRA system organ class (SOC) for each treatment group. The number and percentage of subjects with TEAEs was tabulated for each treatment and with respect to maximum severity and relationship to study medication.

[7] = tested on: healthy subjects; assay: Example 2: 12-lead ECG and telemetric cardiac monitoring; type: in vivo, human; settings: for heart rate, mean value (ECG) / heart rate, mean increase above baseline / heart rate, mean increase above pre-dose value on Day 1: Day 1, 20 minutes after dosing; for time for heart rate to return to baseline after dosing: Day 1
Protocol: as §6, §7

[8] = tested on: healthy subjects; assay: Example 1: conjunctiva congestion rating; type: in vivo, human
Description: as §1, §2, §3, §5

[9] = after single dosing, both dose levels

## CCCCCc1cc(O)c2c(c1)OC(C)(C)[C@@H]1CCC(C)=C[C@@H]21 [delta-9-THC, delta-9-tetrahydrocannabinol]
[1]; 1.2 mg, Day 12, 10 minutes after dosing
  subjects with slight conjunctiva congestion: only one subject
[1]; 1.2 mg, Day 12, one subject
  time to resolution of conjunctiva congestion post-dose: ≤ 4 h
[1]; Groups I and II (1.2 mg and 3.6 mg)
  conjunctiva congestion, rest of the study: No other observation of conjunctiva congestion
[2]; Day 1
  placebo-corrected mean heart rate: limited and short-lasting increase
[2]; Day 12
  placebo-corrected mean heart rate: no increase
[2]; 3.6 mg, Day 1
  duration of placebo-corrected heart rate increase post-dose: at least 4 hours
[2]; 3.6 mg, after 19 days of dosing, by 10 minutes post-dose
  placebo-corrected mean heart rate, maximum increase: approximately 10 bpm
[2]; Group I (1.2 mg), at 0.5 hours after dosing
  Mean increase of heart rate above baseline: ≤ 12 bpm
[2]; Group II (3.6 mg), at 5 minutes after dosing
  Mean increase of heart rate above baseline: ≤ 18 bpm
[2]; after single dose inhaled administration
  heart rate (summary): increased in a dose-dependent fashion
[2]; [9]
  duration of effect on heart rate: 2 to 4 h
  time of maximum effect on heart rate: 2 to 5 min
[3]; one subject with below-normal pre-dose FEV1, Day 11, after six days of dosing with 1.2 mg
  FEV1, lowest result during the study: 63%
[3]; same single subject, 1.2 mg
  FEV1 at the follow-up visit: 58 % of predicted
[4]
  Choice reaction time: Significant decrements
  Digit Vigilance: slight decrement; also recorded: more marked decrements; also recorded: marked decrement
  Digit Vigilance, primary analysis: failed to show significant dose-time interaction
  Immediate word recall: No significant differences
  Numeric Working Memory Speed: significant decrements
  Numeric Working memory sensitivity index: No significant differences
  Spatial Working Memory Sensitivity Index: No significant differences
  Spatial Working Memory Speed: No significant differences
  delay of effects on VAS: up to two hours
  delay of effects on cognitive functioning: up to one hour
  delayed word recall, analysis: significant main effect of dose
  picture recognition sensitivity index: did not show any significant differences
  picture recognition speed: No significant differences
  word recognition speed: did not show any significant differences
  word sensitivity index (word recognition): No significant differences
[5]; 1.2 mg, Day 1
  'feel the drug' and 'liking' scores: slightly larger than those who received placebo
[5]; 1.2 mg, Day 12
  'disliking' scores: approximately the same or slightly higher
  'feel the drug' and 'liking' scores: diminished
[5]; 3.6 mg, 1 hour post-dose
  ARCI Morphine Benzedrine Group (MBG) scale: some MBG effect
[5]; 3.6 mg, Day 1
  'feel the drug', 'liking' and 'disliking' scores versus placebo: significantly larger
[5]; 3.6 mg, Day 19
  subjective drug rating scores: still much larger than the placebo scores
[5]; Groups I and II pooled
  ARCI Amphetamine Scale (AS): no significant effects for condition
  ARCI Benzedrine Group scale, interaction terms: significant for the visit and the condition by visit interaction terms
  ARCI LSD scale: no significance for condition, day, visit, or any of the interaction terms
[5]; Groups I and II pooled, p less than 0.001
  ARCI PCAG scale, visit and condition times visit interaction: highly significant
[6]; 1.2 mg, Group I, all six
  subjects reporting cough: 100%
[6]; 3.6 mg for two weeks
  subjects with increased liver function tests (summary): three out of nine subjects
[6]; 3.6 mg, Group II, five out of six
  subjects reporting cough: 83.3%
[6]; Group 1, one subject
  subjects reporting euphoric mood: 16.7%
[6]; Group I (1.2 mg dose level)
  most frequently reported TEAEs: cough and somnolence
[6]; Group I Active (1.2 mg)
  TEAEs Probable/Possible, E = number of adverse events: 13
  TEAEs Probable/Possible, N = number of subjects: 6
  TEAEs Unlikely/Unrelated, E = number of adverse events: 7
  TEAEs Unlikely/Unrelated, N = number of subjects: 3
[6]; Group I, 1.2 mg
  Any related TEAE, n (x %) subjects: 6 (100%)
  Any related TEAE, number AEs: 13
  Subjects with at least one AE, n (x %): 6 (100%)
  Subjects with at least one AE, number AEs: 20
[6]; Group I
  events reported among subjects treated with active drug: 27 events
  events considered probably or possibly related to study drug: 13 events
[6]; Group II (3.6 mg dose level)
  most frequently reported TEAEs: cough, headache, and euphoric mood
[6]; Group II Active (3.6 mg)
  TEAEs Probable/Possible, E = number of adverse events: 17
  TEAEs Probable/Possible, N = number of subjects: 6
  TEAEs Unlikely/Unrelated, E = number of adverse events: 9
  TEAEs Unlikely/Unrelated, N = number of subjects: 3
[6]; Group II, 3.6 mg
  Any related TEAE, n (x %) subjects: 6 (100%)
  Any related TEAE, number AEs: 17
  Subjects with at least one AE, n (x %): 6 (100%)
  Subjects with at least one AE, number AEs: 27
  subjects with liver enzymes elevated at follow-up: three subjects
[6]; Group II
  events reported among subjects treated with active drug: 19 events
  events considered probably or possibly related to study drug: 17 events
[6]; Group III (so in the source), three subjects
  subjects reporting euphoric mood: 50.0%
[6]; active treatment, Group I
  duration of intermittent cough: between four and nine days
[6]; active treatment, Group II
  duration of intermittent cough: between six and 18 days
[6]; active treatment, two subjects in each group
  subjects reporting somnolence: 33.3%
[6]; single and multiple dosing with 1.2 and 3.6 mg, pulmonary inhaled
  overall safety and tolerability: safe and well-tolerated
[6]; summary
  vital signs, ECG, physical examination, telemetric monitoring and pulmonary function tests: No dose-related trends or clinically significant changes
[6]; whole study
  deaths or serious adverse events: No deaths or serious adverse events
  intensity of TEAEs: mild intensity
  serious or severe AEs, AEs leading to premature termination: no serious or severe AEs
[7]; Group I (1.2 mg)
  heart rate, mean value (ECG): 67 bpm
[7]; Group I
  time for heart rate to return to baseline after dosing: ≤ 40 min
  heart rate, mean increase above baseline: 4 bpm
  heart rate, mean increase above pre-dose value on Day 1: 13 bpm
[7]; Group II (3.6 mg)
  heart rate, mean value (ECG): 81 bpm
[7]; Group II
  time for heart rate to return to baseline after dosing: ≤ 240 min
  heart rate, mean increase above baseline: 14 bpm
  heart rate, mean increase above pre-dose value on Day 1: 21 bpm
[7]; Group II, first dose
  time of return of QTc towards baseline after dosing: ≤ 1 h
[7]; each assessment time point
  Individual QTc values: less than 450 msec
  QTc individual values: < 422 ms
  QTc mean values: < 395 ms
[7]; in vivo
  QTc-intervals using Fridericia's correction: no apparent effect
  telemetric cardiac monitoring: no clinically significant abnormalities
[7]; single and multiple inhalational dosing
  ECG parameters: no clinically significant abnormalities or trends
[8]; 9.6 mg dose group
  number of occurrences of slight congestion: 3
[8]; 0.3 to 7.2 mg doses
  conjunctiva congestion: no or substantially no conjunctiva congestion
[8]; each of the 3.6 and 7.2 mg doses
  occurrence of slight conjunctiva congestion: once
